# Assay results as given in patent US20230128889A1, “REL/RELA/SPOT SMALL MOLECULES MODULATORS AND SCREENING METHODS” (priority 2020, published 2023).
# Test system: Rel synthetase (ST)
# Experiment: Inhibition of Rel synthetase activity: (p)ppGpp production from GDP or GTP and radioactive ATP, TLC
# Format: biochemical
# Conditions: enzyme with GDP or GTP and radioactive ATP, absence or presence of compound
# Method: (§1) As indicated above, the “Yes/No” in the 5th and 6th columns of TABLES A to F indicates whether there is, or respectively is not an inhibition of the synthetase (ST) and/or hydrolase (HD) activity. […] The action of a candidate compound is evaluated based on its effect on the production of (p)ppGpp. Therefore, in order to assess the potential influence of a candidate compound on synthesis activity, the enzyme was mixed with GDP or GTP and radioactive ATP to produce (p)ppGpp in absence or presence of the candidate compound. Subsequently, the reaction is developed by thin layer chromatography (TLC). In an alternative assay that enables determining the effect of a compound on the hydrolysis activity, radioactive (p)ppGpp is incubated with the enzyme and any decrease of the (p)ppGpp spot on TLC is evaluated when the assay is conducted in presence of the compound and compared to control conditions where no candidate compound is added during incubation.
row,SMILES,ST (inhibition of the synthetase activity)
1,O=C(O)CCS(=O)(=O)c1ccc2[nH]c(=O)oc2c1 [Compound 27],No
2,Cc1nc2cc(CC(=O)N[C@@H]3COCC[C@@H]3OCC(=O)O)ccc2[nH]1 [Compound 28],No
3,CC(Nc1ccc(F)cc1[N+](=O)[O-])c1ccc2[nH]c(=O)[nH]c2c1 (stereo not drawn) [Compound 26],No
4,Cc1nc(N)ncc1C(=O)NCc1cccc(-c2nnn[nH]2)c1 [Compound 59],No
5,O=C(O)CCNS(=O)(=O)c1cc2c3c(cccc3c1)C(=O)NC2=O [Compound 51],Yes
6,Cc1c(Cc2ccccc2)c(=O)oc2cc(OCc3ccc(C(=O)O)cc3)ccc12 [Compound 15],Yes
7,CCN(CC)C(=O)CN1CCN(c2ccc(NC(=O)Cc3ccc(C)cc3)c(C(=O)O)c2)CC1 [Compound 69],Yes
8,Cc1c(C(=O)N(CCC(=O)O)CC2CCCO2)sc2ncn(C)c(=O)c12 (stereo not drawn) [Compound 53],No
9,O=[N+]([O-])c1nn(Cc2cccc(-c3nc4c5cn[nH]c5ncn4n3)c2)cc1Cl [Compound 71],Yes
10,Cc1cc(CCc2nnn[nH]2)c2c(C)c(Cc3ccccc3)c(=O)oc2c1 [Compound 17],Yes
11,O=C(O)C[C@H](NC(=O)COc1ccc2nc3n(c(=O)c2c1)CCC3)C(=O)O [Compound 9],no
12,O=C(O)c1cc(NS(=O)(=O)c2ccc3c4c(cccc24)C(=O)N3)cnc1Cl [Compound 49],Yes
13,O=C1c2ccccc2C(=O)N1CCCc1nc(-c2cccc([N+](=O)[O-])c2)no1 [Compound 33],No
14,O=C1N/C(=N\N=C\c2cccc3ccccc23)SC1Cc1ccccc1[N+](=O)[O-] (stereo not drawn) [Compound 24],Yes
15,O=C(O)C1Cc2ccccc2CN1C(=O)Cn1nnc2ccccc21 (stereo not drawn) [Compound 6],No
16,O=C(Nc1nnn[nH]1)c1cc(-c2ccc3c(c2)CCO3)[nH]n1 [Compound 32],No
17,Cc1[nH]c2ccnn2c(=O)c1CC(=O)N(CCC(=O)O)CC1CCCO1 (stereo not drawn) [Compound 54],No
18,CSCCC(NS(=O)(=O)c1ccc2c3c(cccc13)C(=O)N2)C(=O)O (stereo not drawn) [Compound 47],Yes

row,SMILES,ST (inhibition of the synthetase activity)
1,O=C(O)C1CCN(S(=O)(=O)c2ccc3[nH]c(=O)oc3c2)CC1 [Compound 42],Yes
2,Cc1cc(C(=O)N2CCN(c3ncccn3)CC2)c(N)c([N+](=O)[O-])c1 [Compound 63],No
3,O=C(O)c1cccc(Nc2ncnc3[nH]cnc23)c1 [Compound 55],No
4,O=C(O)CNS(=O)(=O)c1ccc2c3c(cccc13)C(=O)N2 [Compound 48],Yes
5,O=C1Nc2ccccc2/C1=N/N=C/c1ccc(-c2ccccc2[N+](=O)[O-])o1 [Compound 41],Yes
6,O=C(Nc1ccc(Cl)c([N+](=O)[O-])c1)c1ccc(-c2cccc(Cl)c2Cl)o1 [Compound 68],Yes
7,O=c1oc2cc(OCc3nnn[nH]3)ccc2cc1-c1ccc2ccccc2c1 [Compound 21],Yes
8,Cc1c(Cc2ccccc2)c(=O)oc2cc(OCc3nnn[nH]3)c(Cl)cc12 [Compound 19],Yes
9,O=C(COc1ccc2ccccc2c1)N1N=C2/C(=C/c3cccc([N+](=O)[O-])c3)CCCC2C1c1cccc([N+](=O)[O-])c1 (stereo not drawn) [Compound 8],No
10,O=C1OCc2ccc(-c3ccc(/C=N/Nc4nnn[nH]4)o3)cc21 [Compound 45],Yes
11,O=C(Nc1ccc(-n2cnc3ccccc32)nc1)c1ccc([N+](=O)[O-])o1 [Compound 43],Yes
12,O=C1Nc2ccccc2/C1=N\c1ccc(O)c([N+](=O)[O-])c1 [Compound 38],Yes
13,Cc1cc(OCC(=O)O)c2c(C)c(Cc3ccccc3)c(=O)oc2c1 [Compound 11],Yes
14,Cc1ccc(CC(=O)Nc2ccc(N3CCC(N4CCCCC4)CC3)cc2C(=O)O)cc1 [Compound 74],Yes
15,O=[N+]([O-])c1ccc(CSc2nnc(-c3ccccc3F)o2)cc1 [Compound 62],No
16,Cn1c(=O)[nH]c(=O)c2[nH]c(SCC(=O)O)nc21 [Compound 52],No
17,O=C(O)/C=C/c1cccc(NC2C(=O)Nc3ccccc32)c1 (stereo not drawn) [Compound 31],No
18,O=[N+]([O-])c1ccc(Sc2nnc3c(n2)[nH]c2ccccc23)c([N+](=O)[O-])c1 [Compound 64],No

# Test system: Rel hydrolase (HD)
# Experiment: Inhibition of Rel hydrolase activity: decrease of radioactive (p)ppGpp spot on TLC
# Format: biochemical
# Conditions: radioactive (p)ppGpp incubated with enzyme, with vs without compound
# Method: as §1
row,SMILES,HD (inhibition of the hydrolase activity)
1,O=C(O)CCS(=O)(=O)c1ccc2[nH]c(=O)oc2c1 [Compound 27],Yes
2,Cc1nc2cc(CC(=O)N[C@@H]3COCC[C@@H]3OCC(=O)O)ccc2[nH]1 [Compound 28],Yes
3,CC(Nc1ccc(F)cc1[N+](=O)[O-])c1ccc2[nH]c(=O)[nH]c2c1 (stereo not drawn) [Compound 26],Yes
4,Cc1nc(N)ncc1C(=O)NCc1cccc(-c2nnn[nH]2)c1 [Compound 59],Yes
5,O=C(O)CCNS(=O)(=O)c1cc2c3c(cccc3c1)C(=O)NC2=O [Compound 51],Yes
6,Cc1c(Cc2ccccc2)c(=O)oc2cc(OCc3ccc(C(=O)O)cc3)ccc12 [Compound 15],No
7,CCN(CC)C(=O)CN1CCN(c2ccc(NC(=O)Cc3ccc(C)cc3)c(C(=O)O)c2)CC1 [Compound 69],Yes
8,Cc1c(C(=O)N(CCC(=O)O)CC2CCCO2)sc2ncn(C)c(=O)c12 (stereo not drawn) [Compound 53],Yes
9,O=[N+]([O-])c1nn(Cc2cccc(-c3nc4c5cn[nH]c5ncn4n3)c2)cc1Cl [Compound 71],Yes
10,Cc1cc(CCc2nnn[nH]2)c2c(C)c(Cc3ccccc3)c(=O)oc2c1 [Compound 17],Yes
11,O=C(O)C[C@H](NC(=O)COc1ccc2nc3n(c(=O)c2c1)CCC3)C(=O)O [Compound 9],yes
12,O=C(O)c1cc(NS(=O)(=O)c2ccc3c4c(cccc24)C(=O)N3)cnc1Cl [Compound 49],Yes
13,O=C1c2ccccc2C(=O)N1CCCc1nc(-c2cccc([N+](=O)[O-])c2)no1 [Compound 33],Yes
14,O=C1N/C(=N\N=C\c2cccc3ccccc23)SC1Cc1ccccc1[N+](=O)[O-] (stereo not drawn) [Compound 24],Yes
15,O=C(O)C1Cc2ccccc2CN1C(=O)Cn1nnc2ccccc21 (stereo not drawn) [Compound 6],Yes
16,O=C(Nc1nnn[nH]1)c1cc(-c2ccc3c(c2)CCO3)[nH]n1 [Compound 32],Yes
17,Cc1[nH]c2ccnn2c(=O)c1CC(=O)N(CCC(=O)O)CC1CCCO1 (stereo not drawn) [Compound 54],Yes
18,CSCCC(NS(=O)(=O)c1ccc2c3c(cccc13)C(=O)N2)C(=O)O (stereo not drawn) [Compound 47],Yes

row,SMILES,HD (inhibition of the hydrolase activity)
1,O=C(O)C1CCN(S(=O)(=O)c2ccc3[nH]c(=O)oc3c2)CC1 [Compound 42],Yes
2,Cc1cc(C(=O)N2CCN(c3ncccn3)CC2)c(N)c([N+](=O)[O-])c1 [Compound 63],Yes
3,O=C(O)c1cccc(Nc2ncnc3[nH]cnc23)c1 [Compound 55],Yes
4,O=C(O)CNS(=O)(=O)c1ccc2c3c(cccc13)C(=O)N2 [Compound 48],Yes
5,O=C1Nc2ccccc2/C1=N/N=C/c1ccc(-c2ccccc2[N+](=O)[O-])o1 [Compound 41],Yes
6,O=C(Nc1ccc(Cl)c([N+](=O)[O-])c1)c1ccc(-c2cccc(Cl)c2Cl)o1 [Compound 68],Yes
7,O=c1oc2cc(OCc3nnn[nH]3)ccc2cc1-c1ccc2ccccc2c1 [Compound 21],Yes
8,Cc1c(Cc2ccccc2)c(=O)oc2cc(OCc3nnn[nH]3)c(Cl)cc12 [Compound 19],Yes
9,O=C(COc1ccc2ccccc2c1)N1N=C2/C(=C/c3cccc([N+](=O)[O-])c3)CCCC2C1c1cccc([N+](=O)[O-])c1 (stereo not drawn) [Compound 8],Yes
10,O=C1OCc2ccc(-c3ccc(/C=N/Nc4nnn[nH]4)o3)cc21 [Compound 45],Yes
11,O=C(Nc1ccc(-n2cnc3ccccc32)nc1)c1ccc([N+](=O)[O-])o1 [Compound 43],Yes
12,O=C1Nc2ccccc2/C1=N\c1ccc(O)c([N+](=O)[O-])c1 [Compound 38],No
13,Cc1cc(OCC(=O)O)c2c(C)c(Cc3ccccc3)c(=O)oc2c1 [Compound 11],No
14,Cc1ccc(CC(=O)Nc2ccc(N3CCC(N4CCCCC4)CC3)cc2C(=O)O)cc1 [Compound 74],Yes
15,O=[N+]([O-])c1ccc(CSc2nnc(-c3ccccc3F)o2)cc1 [Compound 62],Yes
16,Cn1c(=O)[nH]c(=O)c2[nH]c(SCC(=O)O)nc21 [Compound 52],Yes
17,O=C(O)/C=C/c1cccc(NC2C(=O)Nc3ccccc32)c1 (stereo not drawn) [Compound 31],Yes
18,O=[N+]([O-])c1ccc(Sc2nnc3c(n2)[nH]c2ccccc23)c([N+](=O)[O-])c1 [Compound 64],Yes
